Our source for the GI50 and TGI values is PubChem BioAssay (NCI).

Assay in all cases: growth of human tumour cells (NCI), 48 h
Experiment [1] has as its system MDA-MB-435.
Experiment [2] has as its system UACC-257 melanoma.
Experiment [3] deals with HOP-62 NSCLC.
The subject of experiment [4] is OVCAR-5 ovarian.
For experiment [5], the system named is SNB-19 CNS.
Experiment [6] relates to HT29 colon.
Experiment [7] has as its system SF-539 CNS.
The subject of experiment [8] is M14 melanoma.
Experiment [9] deals with ACHN renal.
Experiment [10] deals with PC-3 prostate.

The structures appear in SMILES notation.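 96-well plates; 48 h exposure; 5 concentrations. Endpoints by linear interpolation between flanking doses. Not reached: highest tested concentration assigned. At the GI50, growth is halved. The concentration for full growth arrest is given as TGI.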

In the case of `C/C(=C\c1csc(C)n1)[C@@H]1C[C@@H]2O[C@]2(C)CCC[C@H](C)[C@H](O)[C@@H](C)C(=O)C(C)(C)[C@@H](O)CC(=O)N1`, the GI50 in experiment [1] was 0.0655 nM; in experiment [2], 0.000138 µM; in experiment [3], 0.000352 µM; in [4] it was 0.000262 µM; in experiment [5], 0.000347 µM; in experiment [6] it was 0.0823 nM. Moreover, the GI50 is 0.000165 µM in experiment [7], 0.00154 µM in [8], 0.000324 µM in experiment [9] and below 0.01 nM in [10]. The TGI turned out to be 0.000143 µM in experiment [1]; 0.000277 µM in [2]; 0.000508 µM in experiment [3]; 0.000447 µM in experiment [4]; 0.000508 µM in experiment [5]; 0.000537 µM in [6]. In addition, the TGI in experiment [7] was 0.000369 µM; in [8] it was 0.011 µM; in experiment [9], 0.000478 µM; in experiment [10], below 1e-05 µM.

As for `CN(C)CCCC1(c2ccc(F)cc2)OCc2cc(-c3csc4ccccc34)ccc21` (stereo not given), the GI50 in [1] was 1730 nM; in experiment [2], 1.78 µM; in experiment [3], 1.57 µM; in experiment [4] it was 1.55 µM; in experiment [5] it was 1.6 µM; in experiment [6], 1550 nM. The GI50 in experiment [7] is 1.71 µM; in [8], 1.66 µM; in [9], 1.64 µM; in experiment [10] it was 1730 nM. In addition, the TGI came out at 3.19 µM in experiment [1]; 3.49 µM in experiment [2]; 3.31 µM in experiment [3]; 2.95 µM in experiment [4]; 3.04 µM in experiment [5]; 3.46 µM in experiment [6]. In addition, the TGI in experiment [7] worked out at 3.08 µM; in experiment [8] it was 3.36 µM; in experiment [9] it was 3 µM; in experiment [10] it was 3.29 µM.

Regarding `COc1cc(/C=C/C(=O)c2nc3cc(F)ccc3nc2C)cc(OC)c1OC`, the GI50 is 3550 nM in experiment [1]; 5.51 µM in [2]; above 27.8 µM in experiment [3]; above 100 µM in [4]; above 51.1 µM in experiment [5]; 3750 nM in experiment [6]. Also, the GI50 in [7] is above 100 µM; in experiment [8], above 43.2 µM; in experiment [9], 10.3 µM; in experiment [10], 6050 nM. Also, the TGI in experiment [1], in experiment [2], in experiment [3], in [4], in [5] and in experiment [6] was above 100 µM each time. For the same compound, the TGI in [7], in experiment [8], in experiment [9] and in experiment [10] was above 100 µM in each case.

For the compound `CC1(C)CC2=NO[Se]3=C2C(=NO3)C1`, the TGI in experiment [1] came out at 15.5 µM; in experiment [2], 5.64 µM; in experiment [3], 10.8 µM; in experiment [4], 20.5 µM; in [5], 15.3 µM; in experiment [6], 10.1 µM. Besides, the TGI was 5.75 µM in experiment [7], 6.25 µM in [8], 3.61 µM in [9] and 3.24 µM in experiment [10].

With `COc1cc(NC(=O)COc2ccccc2)c(C(N)=O)cc1OC`, the GI50 in experiment [1] was 203 nM; in experiment [2], above 100 µM; in [3] it was 1.75 µM; in [4] it was 15 µM; in [5], 3.31 µM; in [6] it was 437 nM. In addition, the GI50 in experiment [7] was 0.563 µM; in experiment [8], 0.614 µM; in experiment [9] it was 8.12 µM; in experiment [10], 2230 nM. The TGI in experiment [1] is 0.875 µM; in [2], above 100 µM; in experiment [3] it was 24.3 µM; in experiment [4] it was above 100 µM; in experiment [5], 51.9 µM; in [6] it was above 100 µM. Moreover, the TGI was 3.59 µM in experiment [7], above 100 µM in experiment [8], above 100 µM in experiment [9] and above 100 µM in [10].

Consider `O=S(=O)(O)C(c1ccccc1)C(O)c1ccccc1` (stereo not given), for which the TGI in experiment [1], in [2], in experiment [3], in experiment [4], in experiment [5] and in experiment [6] was above 100 µM in each case. The TGI in [8], in experiment [9] and in experiment [10] was above 100 µM in each case.

`N#CC1=C(N)Oc2c(ccc3ccccc23)C1c1cc2ccccc2n2nnnc12` (stereo not given): the GI50 was 300 nM in [1]; 9.09 µM in experiment [2]; 0.812 µM in [3]; 2.76 µM in experiment [4]; 0.702 µM in experiment [5]; 3000 nM in experiment [6]. Further, the GI50 is 0.948 µM in experiment [8], 1.71 µM in [9] and 546 nM in [10]. Moreover, the TGI in experiment [1] is 1.01 µM; in [2], above 100 µM; in [3], above 100 µM; in experiment [4], above 100 µM; in experiment [5], above 100 µM; in experiment [6] it was above 100 µM. The TGI in experiment [8], in experiment [9] and in experiment [10] was above 100 µM each time.

Regarding `OC[C@H]1C[C@](O)(c2ccc(F)cc2)[C@@H](c2ccc(F)cc2)O1`, the GI50 in [1] is above 100000 nM; in [2] it was above 100 µM; in experiment [3], above 100 µM; in [4], above 100 µM; in [5], above 100 µM; in experiment [6] it was above 100000 nM. For the same compound, the GI50 in experiment [7] was above 100 µM; in experiment [9], above 100 µM; in experiment [10], above 100000 nM. Also, the TGI in [1], in experiment [2], in experiment [3], in [4], in [5] and in experiment [6] was above 100 µM each time. The TGI in experiment [7], in experiment [9] and in experiment [10] was above 100 µM throughout.
